# Reference: US20120029187A1, “HALOALKYLSULFONANILIDE DERIVATIVE” (Nissan Chemical Industries, Ltd., priority 2009, published 2012)
# What was measured:
# Format in all cases: in vivo
# [1] = system: redroot pigweed; assay: Test Example 3: herbicidal effects in soil treatment; details: dose 3.2 g/a
# Procedure, shortened: (§1)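 Seeds were sown in sterilized diluvial soil and covered with about 1.5 cm of soil. Compounds, formulated as emulsifiable concentrates and diluted with water, were sprayed evenly over the soil surface at set doses in g/a. Herbicidal effect was scored on a rating scale three weeks later.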
# [2] = system: velvetleaf; assay: as above; details: dose 3.2 g/a
# Procedure, shortened: as §1
# [3] = system: wild oat; assay: as above; details: dose 3.2 g/a
# Procedure, shortened: as §1
# [4] = system: common ragweed; assay: as above; details: dose 3.2 g/a
# Procedure, shortened: as §1
# [5] = system: water foxtail; assay: as above; details: dose 3.2 g/a
# Procedure, shortened: as §1
# [6] = system: Italian ryegrass; assay: as above; details: dose 3.2 g/a
# Procedure, shortened: as §1
# [7] = system: giant foxtail; assay: as above; details: dose 3.2 g/a
# Procedure, shortened: as §1
# [8] = system: barnyardgrass; assay: as above; details: dose 3.2 g/a
# Procedure, shortened: as §1
# [9] = system: common lambsquater; assay: as above; details: dose 3.2 g/a
# Procedure, shortened: as §1
# [10] = system: common chickweed; assay: as above; details: dose 3.2 g/a
# Procedure, shortened: as §1
# [11] = system: posumbu knotweed; assay: as above; details: dose 3.2 g/a
# Procedure, shortened: as §1
# [12] = system: large crabgrass; assay: as above; details: dose 3.2 g/a
# Procedure, shortened: as §1
# [13] = system: redroot pigweed; assay: Test Example 4: herbicidal effect in foliage treatment; details: dose 3.2 g/a
# Procedure, shortened: (§2)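 Post-emergence foliar spray of water-diluted emulsifiable concentrate at predetermined doses (g per are), applied to plants 14 days after sowing in sterile diluvial soil (greenhouse, 25 to 30° C). Visual scale rating of effect taken 3 weeks later.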
# [14] = system: velvetleaf; assay: as above; details: dose 3.2 g/a
# Procedure, shortened: as §2
# [15] = system: wild oat; assay: as above; details: dose 3.2 g/a
# Procedure, shortened: as §2
# [16] = system: common ragweed; assay: as above; details: dose 3.2 g/a
# Procedure, shortened: as §2
# [17] = system: water foxtail; assay: as above; details: dose 3.2 g/a
# Procedure, shortened: as §2
# [18] = system: beadstraw; assay: as above; details: dose 3.2 g/a
# Procedure, shortened: as §2
# [19] = system: Italian ryegrass; assay: as above; details: dose 3.2 g/a
# Procedure, shortened: as §2
# [20] = system: giant foxtail; assay: as above; details: dose 3.2 g/a
# Procedure, shortened: as §2
# [21] = system: barnyardgrass; assay: as above; details: dose 3.2 g/a
# Procedure, shortened: as §2
# [22] = system: common lambsquater; assay: as above; details: dose 3.2 g/a
# Procedure, shortened: as §2
# [23] = system: common chickweed; assay: as above; details: dose 3.2 g/a
# Procedure, shortened: as §2
# [24] = system: posumbu knotweed; assay: as above; details: dose 3.2 g/a
# Procedure, shortened: as §2
# [25] = system: large crabgrass; assay: as above; details: dose 3.2 g/a
# Procedure, shortened: as §2
# [26] = system: ducksalad; assay: Test Example 2: herbicidal effects during the vegetation period under submerged conditions; details: treatment during the vegetation period under submerged conditions; dose 2.52 g/a
# Procedure, shortened: (§3)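 Barnyardgrass, bulrush and ducksalad were co-sown in alluvial soil flooded to 4 cm and grown in a greenhouse at 25 to 30° C. At the 1- or 2-leaf stage, water-diluted emulsifiable concentrates went onto the water surface at set doses (g/a). Herbicidal effect was scored three weeks later on a graded scale.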
# [27] = system: bulrush; assay: as above; details: treatment during the vegetation period under submerged conditions; dose 2.52 g/a
# Procedure, shortened: as §3
# [28] = system: barnyardgrass; assay: as above; details: treatment during the vegetation period under submerged conditions; dose 2.52 g/a
# Procedure, shortened: as §3
# [29] = system: ducksalad; assay: Test Example 1: herbicidal effects in preemergence treatment under submerged conditions; details: dose 2.52 g/a
# Procedure, shortened: (§4)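 Weed seeds and 2.5-leaf rice seedlings shared each flooded cup of alluvial soil. Dosing, expressed as g per are, was by pouring water-diluted emulsifiable concentrate onto the surface on sowing day. Mortality was graded 0 to 5 after three weeks' growth.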
# [30] = system: bulrush; assay: as above; details: dose 2.52 g/a
# Procedure, shortened: as §4
# [31] = system: barnyardgrass; assay: as above; details: dose 2.52 g/a
# Procedure, shortened: as §4
# [32] = system: transplanted rice; assay: Test Example 1: preemergence treatment under submerged conditions, effect on crop; details: dose 2.52 g/a
# Procedure, shortened: as §4
# [33] = three weeks after the application
structure (smiles),measurement,setting,value
O=C1CCCON1Cc1ccccc1N(C(=O)OCCCl)S(=O)(=O)C(F)(F)F [III-14],"herbicidal effect, K: redroot pigweed",[1],1 (mortality of at least 5% and less than 20%)
same,"herbicidal effect, I: velvetleaf",[2],5 (mortality of 90% or above (nearly complete death))
same,"herbicidal effect, F: wild oat",[3],0 (mortality of less than 5% (almost ineffective))
same,"herbicidal effect, J: common ragweed",[4],5 (mortality of 90% or above (nearly complete death))
same,"herbicidal effect, G: water foxtail",[5],5 (mortality of 90% or above (nearly complete death))
same,"herbicidal effect, H: Italian ryegrass",[6],3 (mortality of at least 40% and less than 70%)
same,"herbicidal effect, E: giant foxtail",[7],5 (mortality of 90% or above (nearly complete death))
same,"herbicidal effect, A: barnyardgrass",[8],5 (mortality of 90% or above (nearly complete death))
same,"herbicidal effect, L: common lambsquater",[9],0 (mortality of less than 5% (almost ineffective))
same,"herbicidal effect, N: common chickweed",[10],5 (mortality of 90% or above (nearly complete death))
same,"herbicidal effect, M: posumbu knotweed",[11],3 (mortality of at least 40% and less than 70%)
same,"herbicidal effect, D: large crabgrass",[12],5 (mortality of 90% or above (nearly complete death))
same,"K: redroot pigweed, herbicidal effect",[13]; [33],3 (mortality of at least 40% and less than 70%)
same,"I: velvetleaf, herbicidal effect",[14]; [33],5 (mortality of 90% or above (nearly complete death))
same,"F: wild oat, herbicidal effect",[15]; [33],0 (mortality of less than 5% (almost ineffective))
same,"J: common ragweed, herbicidal effect",[16]; [33],4 (mortality of at least 70% and less than 90%)
same,"G: water foxtail, herbicidal effect",[17]; [33],5 (mortality of 90% or above (nearly complete death))
same,"O: beadstraw, herbicidal effect",[18]; [33],5 (mortality of 90% or above (nearly complete death))
same,"H: Italian ryegrass, herbicidal effect",[19]; [33],4 (mortality of at least 70% and less than 90%)
same,"E: giant foxtail, herbicidal effect",[20]; [33],5 (mortality of 90% or above (nearly complete death))
same,"A: barnyardgrass, herbicidal effect",[21]; [33],5 (mortality of 90% or above (nearly complete death))
same,"L: common lambsquater, herbicidal effect",[22]; [33],0 (mortality of less than 5% (almost ineffective))
same,"N: common chickweed, herbicidal effect",[23]; [33],4 (mortality of at least 70% and less than 90%)
same,"M: posumbu knotweed, herbicidal effect",[24]; [33],0 (mortality of less than 5% (almost ineffective))
same,"D: large crabgrass, herbicidal effect",[25]; [33],5 (mortality of 90% or above (nearly complete death))
same,"C: ducksalad, herbicidal effect (evaluation scale 0-5)",[26],5 (mortality of 90% or above (nearly complete death))
same,"B: bulrush, herbicidal effect (evaluation scale 0-5)",[27],5 (mortality of 90% or above (nearly complete death))
same,"A: barnyardgrass, herbicidal effect (evaluation scale 0-5)",[28],5 (mortality of 90% or above (nearly complete death))
same,"C: ducksalad, herbicidal effect (evaluation scale 0-5)",[29],5 (mortality of 90% or above (nearly complete death))
same,"B: bulrush, herbicidal effect (evaluation scale 0-5)",[30],5 (mortality of 90% or above (nearly complete death))
same,"A: barnyardgrass, herbicidal effect (evaluation scale 0-5)",[31],5 (mortality of 90% or above (nearly complete death))
same,"a: transplanted rice, effect on crop (evaluation scale 0-5)",[32],3 (mortality of at least 40% and less than 70%)
CC1COCC(=O)N1Cc1ccccc1NS(=O)(=O)C(F)(F)F (stereo not shown) [Compound I-13],"K: redroot pigweed, herbicidal effect (evaluation scale 0-5)",[1],5 (mortality of 90% or above (nearly complete death))
same,"I: velvetleaf, herbicidal effect (evaluation scale 0-5)",[2],5 (mortality of 90% or above (nearly complete death))
same,"F: wild oat, herbicidal effect (evaluation scale 0-5)",[3],3 (mortality of at least 40% and less than 70%)
same,"J: common ragweed, herbicidal effect (evaluation scale 0-5)",[4],5 (mortality of 90% or above (nearly complete death))
same,"G: water foxtail, herbicidal effect (evaluation scale 0-5)",[5],5 (mortality of 90% or above (nearly complete death))
same,"H: Italian ryegrass, herbicidal effect (evaluation scale 0-5)",[6],5 (mortality of 90% or above (nearly complete death))
same,"E: giant foxtail, herbicidal effect (evaluation scale 0-5)",[7],5 (mortality of 90% or above (nearly complete death))
same,"A: barnyardgrass, herbicidal effect (evaluation scale 0-5)",[8],5 (mortality of 90% or above (nearly complete death))
same,"L: common lambsquater, herbicidal effect (evaluation scale 0-5)",[9],5 (mortality of 90% or above (nearly complete death))
same,"N: common chickweed, herbicidal effect (evaluation scale 0-5)",[10],5 (mortality of 90% or above (nearly complete death))
same,"M: posumbu knotweed, herbicidal effect (evaluation scale 0-5)",[11],5 (mortality of 90% or above (nearly complete death))
same,"D: large crabgrass, herbicidal effect (evaluation scale 0-5)",[12],5 (mortality of 90% or above (nearly complete death))
same,"K: redroot pigweed, herbicidal effect",[13]; three weeks after application,3 (mortality of at least 40% and less than 70%)
same,"I: velvetleaf, herbicidal effect",[14]; three weeks after application,5 (mortality of 90% or above (nearly complete death))
same,"F: wild oat, herbicidal effect",[15]; three weeks after application,0 (mortality of less than 5% (almost ineffective))
same,"J: common ragweed, herbicidal effect",[16]; three weeks after application,4 (mortality of at least 70% and less than 90%)
same,"G: water foxtail, herbicidal effect",[17]; three weeks after application,5 (mortality of 90% or above (nearly complete death))
same,"O: beadstraw, herbicidal effect",[18]; three weeks after application,4 (mortality of at least 70% and less than 90%)
same,"H: Italian ryegrass, herbicidal effect",[19]; three weeks after application,5 (mortality of 90% or above (nearly complete death))
same,"E: giant foxtail, herbicidal effect",[20]; three weeks after application,4 (mortality of at least 70% and less than 90%)
same,"A: barnyardgrass, herbicidal effect",[21]; three weeks after application,5 (mortality of 90% or above (nearly complete death))
same,"L: common lambsquater, herbicidal effect",[22]; three weeks after application,3 (mortality of at least 40% and less than 70%)
same,"N: common chickweed, herbicidal effect",[23]; three weeks after application,4 (mortality of at least 70% and less than 90%)
same,"M: posumbu knotweed, herbicidal effect",[24]; three weeks after application,3 (mortality of at least 40% and less than 70%)
same,"D: large crabgrass, herbicidal effect",[25]; three weeks after application,5 (mortality of 90% or above (nearly complete death))
same,"C: ducksalad, herbicidal effect (evaluation scale 0-5)",[26],5 (mortality of 90% or above (nearly complete death))
same,"B: bulrush, herbicidal effect (evaluation scale 0-5)",[27],5 (mortality of 90% or above (nearly complete death))
same,"A: barnyardgrass, herbicidal effect (evaluation scale 0-5)",[28],5 (mortality of 90% or above (nearly complete death))
same,"C: ducksalad, herbicidal effect (evaluation scale 0-5)",[29],5 (mortality of 90% or above (nearly complete death))
same,"B: bulrush, herbicidal effect (evaluation scale 0-5)",[30],5 (mortality of 90% or above (nearly complete death))
same,"A: barnyardgrass, herbicidal effect (evaluation scale 0-5)",[31],5 (mortality of 90% or above (nearly complete death))
same,"a: transplanted rice, effect on crop (evaluation scale 0-5)",[32],1 (mortality of at least 5% and less than 20%)
